Values of other authors, collected in patent US20040138296A1, “Amyloid immunization and Cox-2 inhibitors for the treatment of alzheimer's disease” (Pharmacia Corporation, priority 2002, published 2004).

Assays:
AD patients [1] = conditions: for other adverse effects: metrifonate in Phase III trials
[2] = test system: mild or moderately impaired Alzheimer's disease patients; conditions: 100-150 mg, 6 months
NG108-15 cells = conditions: by inhibition of APP mRNA level
[3] = test system: microglial and astrocytic activation; conditions: adult rats, Abeta (1-42) into nucleus basalis
[4] = test system: glia reaction, iNOS production; conditions: once a day, seven days following the injection
AD patients [5] = conditions: over 300 AD patients
neurons = conditions: Abeta (25-35) and Abeta (1-40)

Nc1c2c(nc3ccccc13)CCCC2 [Tacrine]
half-life (AD patients [1]; cholinesterase inhibitor in AD use): short half-life | hepatotoxicity (AD patients [1]; patients): hepatotoxic effects in a number of patients

COc1ccc2c(c1)c(CC(=O)O)c(C)n2C(=O)c1ccc(Cl)cc1 [indomethacin]
cognitive decline versus placebo [2]: appeared to protect the patients | production of amyloid β-peptide and a secreted form of APP (NG108-15 cells): suppressed production

CS(=O)(=O)c1ccc(C2=C(c3ccccc3)C(=O)OC2)cc1 [rofecoxib]
microglial and astrocytic activation [3]: attenuated microglial and astrocytic activation

CC(C)Cc1ccc(C(C)C(=O)O)cc1 (centres unmarked) [ibuprofen]
astrocytic reaction [4]: no effect on astrocytic reaction | microglia reaction [4]: attenuated microglia reaction | number of iNOS-positive cells [4]: reduced the number of iNOS-positive cells

C#CCN(C)[C@H](C)Cc1ccccc1 [selegeline, Selegiline]
progression of the disease (AD patients [5]): slow the progression of the disease

CCN(C)C(=O)Oc1cccc([C@H](C)N(C)C)c1 [Rivastigmine]
duration of action (AD patients [1]; human, in vivo): 10 h | gastrointestinal side effects (AD patients [1]; patients): some gastrointestinal side effects | other adverse effects (AD patients [1]; patients): weight loss

CCN1CC/C(=C\c2cc(C(C)(C)C)c(O)c(C(C)(C)C)c2)S1(=O)=O [Compound S-2474]
Abeta induced cell death of neurons (neurons): significantly prevented

COP(=O)(OC)C(O)C(Cl)(Cl)Cl (centres unmarked) [metrifonate]
other adverse effects (AD patients [1]; patients): leg cramps and muscle cramps

CS(=O)(=O)Nc1ccc([N+](=O)[O-])cc1Oc1ccccc1 [nimesulide, N-(4-Nitro-2-phenoxy-phenyl)-methanesulfonamide]
astrocytic reaction [4]: no effect on astrocytic reaction | microglia reaction [4]: attenuated microglia reaction | number of iNOS-positive cells [4]: reduced the number of iNOS-positive cells

Cc1c(C)c2c(c(C)c1O)CC[C@@](C)(CCC[C@H](C)CCC[C@H](C)CCCC(C)C)O2 [vitamin E, alpha-tocopherol]
progression of the disease (AD patients [5]): slow the progression of the disease

COc1cc2c(cc1OC)C(=O)C(CC1CCN(Cc3ccccc3)CC1)C2 (centres unmarked) [Donepezil]
AD-associated deterioration (AD patients [1]; controlled trials, mild to moderately severe AD patients): can delay AD-associated deterioration | gastrointestinal side effects (AD patients [1]; patients): relatively low incidence of gastrointestinal side effects
